# Experimental data taken from US20190382839A1, “[…]” (Bayer Pharma Aktiengesellschaft, priority 2016, published 2019).
# Like-named read-outs stand apart in the source and are kept apart here.
# System: NHL patients (FL, MZL, MCL, DLBCL, transformed indolent lymphoma, CLL)
# From the text: Best response status and progression-free survival (hereinafter referred to as “PFS”) from independent review assessment were used for gene expression analysis. A total number of 24 patients including 3 complete responders, 1 confirmed (hereinafter referred to as “CR”) and 2 unconfirmed (hereinafter referred to as “CRu”) and 5 partial responders (hereinafter referred to as “PR”), 11 stable diseases (hereinafter referred to as “SD”) and 5 progressive diseases (hereinafter referred to as “PD”) with follicular lymphoma (hereinafter referred to as “FL”), marginal zone lymphoma (hereinafter referred to as “MZL”), mantle cell lymphoma (“MCL”), diffuse large B-cell lymphoma (hereinafter referred to as “DLBCL”), transformed indolent lymphoma or CLL who had baseline RNA expression profiling data of sufficient quantity and quality were used for gene expression analysis as listed in Table 1 (given in the experimental section).
# Bioinformatics and statistical analyses were done for all 24 NHL patients. […] For GSEA, 34 gene sets (vide Tables 2 and 3) sharing key biological function/process in apoptosis, B-cell receptor (hereinafter referred to as “BCR”) signaling, IL6/JAK/STAT3, cytokine/chemokine, MAPK, MYC, MYD88, NFAT, NFkB, NOTCH, PI3K or tumor microenvironment (refs 3 and 4) were selected and generated.
# A weighted gene expression score (hereinafter referred to as “WGS”) reflecting the overall expression level for each gene set was generated from logistic regression and Cox proportional hazards models to assess the association with response status (best-response-WGS) and PFS (PFS-WGS), respectively.
# Both the best-response-WGS as well as the PFS-WGS were in turn used in logistic regression or Cox regression models to assess the association of either WGS with the endpoints. Moreover, the raw best-response WGS was used to compute non-cross validated AUC estimates for responder (CR+PR) and non-responder (SD+PD) classifications.
smiles,measurement,setting,value
COc1c(OCCCN2CCOCC2)ccc2c1N=C(NC(=O)c1cnc(N)nc1)N1CCN=C21 [copanlisib],median PFS,"CSTB, median gene expression level as cutoff, first printed group (high expression, shorter PFS)",74 days
same,number of patients with CR,of the 24 analyzable patients,3
same,number of patients with PD,of the 24 analyzable patients,5
same,number of patients with PR,of the 24 analyzable patients,5
same,number of patients with SD,of the 24 analyzable patients,11
same,objective response rate,patients with high BCR pathway WGS compared to low,increased
same,objective response rate,patients with high PI3K pathway WGS compared to low,increased
